Source: patent US12398154B2, “Azaquinazoline pan-KRas inhibitors” (Mirati Therapeutics, Inc., priority 2020, dated 2025)

Key:
Test in all cases: biochemical
KRas G12D = KRas G12D (Homo sapiens, UniProt P01116, G12D);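 note: TR-FRET displacement binding assay on KRas, read after a one-hour incubation at room temperature, IC50 fitted from percent-of-control values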
Description: (§1) The ability of a compound to bind to KRas was measured using a TR-FRET displacement assay. […] After a 60-minute incubation at room temperature, the reaction was measured using a BMG LABTECH CLARIO star Plus via TR-FRET. […] The POC values were fit to a 4-parameter IC50 equation and the IC50 value reported.

KRas G12V = KRas G12V (Homo sapiens, UniProt P01116, G12V);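 note: KRas binding measured by TR-FRET displacement at room temperature, IC50 fitted from percent of control values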
Description: as §1

KRas G12R = KRas G12R (Homo sapiens, UniProt P01116, G12R);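 note: TR-FRET displacement assay of compound binding to KRas, read after one hour at room temperature, potency from a four-parameter fit of percent-of-control values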
Sequence of KRas G12R (P01116 1-169 isoform P01116-2 G12R): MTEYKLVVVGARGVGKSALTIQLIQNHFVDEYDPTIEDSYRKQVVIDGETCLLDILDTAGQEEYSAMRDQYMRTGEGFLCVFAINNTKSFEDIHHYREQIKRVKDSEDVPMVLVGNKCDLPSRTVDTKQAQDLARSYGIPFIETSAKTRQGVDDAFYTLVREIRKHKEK
Description: as §1

Sequence of KRas G12V (P01116 1-169 isoform P01116-2 G12V): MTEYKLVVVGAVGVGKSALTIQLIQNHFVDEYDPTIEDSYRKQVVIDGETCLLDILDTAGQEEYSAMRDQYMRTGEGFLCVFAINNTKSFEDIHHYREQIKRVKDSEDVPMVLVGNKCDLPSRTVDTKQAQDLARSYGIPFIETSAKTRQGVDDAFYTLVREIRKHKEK
Sequence of KRas G12D (P01116 1-169 isoform P01116-2 G12D): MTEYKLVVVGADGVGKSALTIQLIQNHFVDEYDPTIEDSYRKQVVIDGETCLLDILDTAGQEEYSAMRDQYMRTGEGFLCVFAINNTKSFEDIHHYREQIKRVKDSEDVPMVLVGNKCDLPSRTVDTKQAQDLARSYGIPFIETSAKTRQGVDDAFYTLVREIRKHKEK

SMILES	IC50 (KRas G12D)	IC50 (KRas G12V)	IC50 (KRas G12R)
CC1(O)CCCN(c2nc(OCC34CCCN3CCC4)nc3c(F)c(-c4cccc5ccccc45)ncc23)C1 (stereo not drawn) [Example 69, 1-(8-fluoro-2-((hexahydro-1H-pyrrolizin-7a-yl)methoxy)-7-(naphthalen-1-yl)pyrido[4,3-d]pyrimidin-4-yl)-3-methylpiperidin-3-ol]	2.09 µM	2.73 µM	4.17 µM
O=S1(=O)CCC(Nc2nc(OCC34CCCN3CCC4)nc3c(F)c(-c4cccc5cccc(F)c45)ncc23)C1 (stereo not drawn) [Example 279, 3-((8-fluoro-7-(8-fluoronaphthalen-1-yl)-2-((hexahydro-1H-pyrrolizin-7a-yl)methoxy)pyrido[4,3-d]pyrimidin-4-yl)amino)tetrahydrothiophene 1,1-dioxide]	34.3 µM	3.39 µM	3.62 µM
CCc1cccc2cccc(-c3ncc4c(N5CCCC(C)(O)C5)nc(OCC56CCCN5CCC6)nc4c3F)c12 (stereo not drawn) [Example 54, 1-(7-(8-ethylnaphthalen-1-yl)-8-fluoro-2-((hexahydro-1H-pyrrolizin-7a-yl)methoxy)pyrido[4,3-d]pyrimidin-4-yl)-3-methylpiperidin-3-ol]	0.162 µM	0.321 µM	0.528 µM
CCc1c(F)ccc2cc(O)cc(-c3ncc4c(NCC5(O)CCCCC5)nc(OC[C@@]56CCCN5C[C@H](F)C6)nc4c3F)c12 [Example 52, 5-ethyl-6-fluoro-4-(8-fluoro-2-(((2R,7aS)-2-fluorohexahydro-1H-pyrrolizin-7a-yl)methoxy)-4-(((1-hydroxycyclohexyl)methyl)amino)pyrido[4,3-d]pyrimidin-7-yl)naphthalen-2-ol]	0.235 µM	0.025 µM	0.039 µM
CCc1c(F)ccc2cc(O)cc(-c3ncc4c(N5CCN6C(C5)C(=O)NC6(C)C)nc(OC[C@@]56CCCN5C[C@H](F)C6)nc4c3F)c12 (stereo partly drawn) [Example 489, 7-(7-(8-ethyl-7-fluoro-3-hydroxynaphthalen-1-yl)-8-fluoro-2-(((2R,7aS)-2-fluorohexahydro-1H-pyrrolizin-7a-yl)methoxy)pyrido[4,3-d]pyrimidin-4-yl)-3,3-dimethylhexahydroimidazo[1,5-a]pyrazin-1(5H)-one]	0.221 µM	0.151 µM	0.31 µM
NC(=O)NC1CCCN(c2nc(OCC34CCCN3CCC4)nc3c(F)c(-c4cccc5cccc(F)c45)ncc23)C1 (stereo not drawn) [Example 241, 1-(1-(8-fluoro-7-(8-fluoronaphthalen-1-yl)-2-((hexahydro-1H-pyrrolizin-7a-yl)methoxy)pyrido[4,3-d]pyrimidin-4-yl)piperidin-3-yl)urea]	17.2 µM	13.6 µM	8.62 µM
Fc1c(-c2cccc3cccc(F)c23)ncc2c(N3CCCn4nccc4C3)nc(OCC34CCCN3CCC4)nc12 [Example 245, 4-(7,8-dihydro-4H-pyrazolo[1,5-a][1,4]diazepin-5(6H)-yl)-8-fluoro-7-(8-fluoronaphthalen-1-yl)-2-((hexahydro-1H-pyrrolizin-7a-yl)methoxy)pyrido[4,3-d]pyrimidine]	2.99 µM	11.7 µM	9.83 µM
CCc1c(F)ccc2cc(O)cc(-c3ncc4c(N(C)Cc5cn[nH]c5)nc(OC[C@@]56CCCN5C[C@H](F)C6)nc4c3F)c12 [Example 163, 4-(4-(((1H-pyrazol-4-yl)methyl)(methyl)amino)-8-fluoro-2-(((2R,7aS)-2-fluorohexahydro-1H-pyrrolizin-7a-yl)methoxy)pyrido[4,3-d]pyrimidin-7-yl)-5-ethyl-6-fluoronaphthalen-2-ol]	0.095 µM	0.014 µM	0.017 µM
CC1(O)CCCN(c2nc(OCC34CCCN3CCC4)nc3c(F)c(-c4cc(O)ccc4F)ncc23)C1 (stereo not drawn) [Example 429, 1-(8-fluoro-7-(2-fluoro-5-hydroxyphenyl)-2-((tetrahydro-1H-pyrrolizin-7a(5H)-yl)methoxy)pyrido[4,3-d]pyrimidin-4-yl)-3-methylpiperidin-3-ol]	2.46 µM	4.44 µM	8.25 µM
OC1CCCN(c2nc(OCC34CCCN3CCC4)nc3c(F)c(-c4cccc5cccc(F)c45)ncc23)CC1 (stereo not drawn) [Example 8, 1-(8-fluoro-7-(8-fluoronaphthalen-1-yl)-2-((hexahydro-1H-pyrrolizin-7a-yl)methoxy)pyrido[4,3-d]pyrimidin-4-yl)azepan-4-ol]	2.24 µM	2.63 µM	5.41 µM
Cc1cc2sc(N)nc2c(-c2ncc3c(N4CCCC(C)(O)C4)nc(OCC45CCCN4CCC5)nc3c2F)c1C (stereo not drawn) [Example 40, 1-(7-(2-amino-5,6-dimethylbenzo[d]thiazol-4-yl)-8-fluoro-2-((hexahydro-1H-pyrrolizin-7a-yl)methoxy)pyrido[4,3-d]pyrimidin-4-yl)-3-methylpiperidin-3-ol]	55 µM	66.3 µM	76.9 µM
O=C1NCC2(CCCN(c3nc(OCC45CCCN4CCC5)nc4c(F)c(-c5cccc6cccc(F)c56)ncc34)C2)N1 (stereo not drawn) [Example 45, 7-(8-fluoro-7-(8-fluoronaphthalen-1-yl)-2-((hexahydro-1H-pyrrolizin-7a-yl)methoxy)pyrido[4,3-d]pyrimidin-4-yl)-1,3,7-triazaspiro[4.5]decan-2-one]	0.089 µM	0.189 µM	0.362 µM
O=C1CCN(c2nc(OCC34CCCN3CCC4)nc3c(F)c(-c4cccc5cccc(F)c45)ncc23)CCCN1 [Example 3, 5-(8-fluoro-7-(8-fluoronaphthalen-1-yl)-2-((hexahydro-1H-pyrrolizin-7a-yl)methoxy)pyrido[4,3-d]pyrimidin-4-yl)-1,5-diazocan-2-one]	8.18 µM	11.7 µM	20.4 µM
CC1(CNc2nc(OCC34CCCN3CCC4)nc3c(F)c(-c4cccc5cccc(F)c45)ncc23)CCC1 [Example 19, 8-fluoro-7-(8-fluoronaphthalen-1-yl)-2-((hexahydro-1H-pyrrolizin-7a-yl)methoxy)-N-((1-methylcyclobutyl)methyl)pyrido[4,3-d]pyrimidin-4-amine]	≥ 100 µM	64.5 µM	84.3 µM

Further compounds by falling IC50 (KRas G12D), results first:

IC50 (KRas G12D)	IC50 (KRas G12V)	IC50 (KRas G12R)	SMILES
63.4 µM	70.1 µM	≥ 100 µM	OC1CCC2(CCCN(c3nc(OCC45CCCN4CCC5)nc4c(F)c(-c5cccc6cccc(F)c56)ncc34)C2)C1 (stereo not drawn) [Example 47, 7-(8-fluoro-7-(8-fluoronaphthalen-1-yl)-2-((hexahydro-1H-pyrrolizin-7a-yl)methoxy)pyrido[4,3-d]pyrimidin-4-yl)-7-azaspiro[4.5]decan-2-ol]
19.7 µM	8.1 µM	4.19 µM	Fc1c(-c2cccc3cccc(Cl)c23)ncc2c(N3CCCC(c4c[nH]nn4)C3)nc(OCC34CCCN3CCC4)nc12 (stereo not drawn) [Example 108, 4-(3-(1H-1,2,3-triazol-4-yl)piperidin-1-yl)-7-(8-chloronaphthalen-1-yl)-8-fluoro-2-((tetrahydro-1H-pyrrolizin-7a(5H)-yl)methoxy)pyrido[4,3-d]pyrimidine]
15.5 µM	0.539 µM	0.65 µM	CN(Cc1cccnc1N)c1nc(OCC23CCCN2CCC3)nc2c(F)c(-c3cccc4cccc(F)c34)ncc12 [Example 79, N-((2-aminopyridin-3-yl)methyl)-8-fluoro-7-(8-fluoronaphthalen-1-yl)-N-methyl-2-((tetrahydro-1H-pyrrolizin-7a(5H)-yl)methoxy)pyrido[4,3-d]pyrimidin-4-amine]
11.3 µM	6.44 µM	8.88 µM	OC[C@@H]1CCCN(c2nc(OCC34CCCN3CCC4)nc3c(F)c(-c4cccc5cccc(F)c45)ncc23)C1 [Example 268, (R)-(1-(8-fluoro-7-(8-fluoronaphthalen-1-yl)-2-((hexahydro-1H-pyrrolizin-7a-yl)methoxy)pyrido[4,3-d]pyrimidin-4-yl)piperidin-3-yl)methanol]
6.48 µM	3.41 µM	6.39 µM	Fc1c(-c2cccc3cccc(F)c23)ncc2c(N3CCCCCCC3)nc(OCC34CCCN3CCC4)nc12 [Example 41, 4-(azocan-1-yl)-8-fluoro-7-(8-fluoronaphthalen-1-yl)-2-((hexahydro-1H-pyrrolizin-7a-yl)methoxy)pyrido[4,3-d]pyrimidine]
6.06 µM	5.25 µM	13.9 µM	O=C1CC2(CCCCN(c3nc(OCC45CCCN4CCC5)nc4c(F)c(-c5cccc6cccc(F)c56)ncc34)C2)N1 (stereo not drawn) [Example 266, 6-(8-fluoro-7-(8-fluoronaphthalen-1-yl)-2-((hexahydro-1H-pyrrolizin-7a-yl)methoxy)pyrido[4,3-d]pyrimidin-4-yl)-1,6-diazaspiro[3.6]decan-2-one]
2.84 µM	10.8 µM	7.91 µM	Cc1cc2n(n1)CCCN(c1nc(OCC34CCCN3CCC4)nc3c(F)c(-c4cccc5cccc(F)c45)ncc13)C2 [Example 254, 8-fluoro-7-(8-fluoronaphthalen-1-yl)-2-((hexahydro-1H-pyrrolizin-7a-yl)methoxy)-4-(2-methyl-7,8-dihydro-4H-pyrazolo[1,5-a][1,4]diazepin-5(6H)-yl)pyrido[4,3-d]pyrimidine]
2.61 µM	3.76 µM	8.34 µM	CC1(O)CCCN(c2nc(OCC34CCCN3CCC4)nc3c(F)c(-c4cccc5cccc(C#N)c45)ncc23)C1 (stereo not drawn) [Example 56, 8-(8-fluoro-2-((hexahydro-1H-pyrrolizin-7a-yl)methoxy)-4-(3-hydroxy-3-methylpiperidin-1-yl)pyrido[4,3-d]pyrimidin-7-yl)-1-naphthonitrile]
0.456 µM	0.333 µM	0.354 µM	CCc1c(F)ccc2cc(O)cc(-c3ncc4c(N5CCC[C@](C)(O)C5)nc(OC[C@@H]5C[C@@H](OC(=O)NC)CN5C)nc4c3F)c12 [Example 9, [(3R,5S)-5-[[7-(8-ethyl-7-fluoro-3-hydroxy-1-naphthyl)-8-fluoro-4-[(3S)-3-hydroxy-3-methyl-1-piperidyl]pyrido[4,3-d]pyrimidin-2-yl]oxymethyl]-1-methyl-pyrrolidin-3-yl] N-methylcarbamate]
